Source: PubChem BioAssay (NCI)
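These data come from cells grown in 96-well plates and exposed to compound for 48 hours at five concentrations. GI50 = concentration required for 50% inhibition of growth. TGI is the concentration that stops growth completely.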

What was measured:
Test in all cases: NCI tumour cell line growth inhibition, 48 h
786-0 renal = test system: 786-0 renal
A498 renal = test system: A498 renal
A549 NSCLC = test system: A549 NSCLC
ACHN renal = test system: ACHN renal
BT-549 breast = test system: BT-549 breast
CAKI-1 renal = test system: CAKI-1 renal
CCRF-CEM leukemia = test system: CCRF-CEM leukemia
COLO 205 colon = test system: COLO 205 colon
DU-145 prostate = test system: DU-145 prostate
EKVX NSCLC = test system: EKVX NSCLC
HCC-2998 colon = test system: HCC-2998 colon
HCT-116 colon = test system: HCT-116 colon
HCT-15 colon = test system: HCT-15 colon
HL-60(TB) leukemia = test system: HL-60(TB) leukemia
HOP-62 NSCLC = test system: HOP-62 NSCLC
HOP-92 NSCLC = test system: HOP-92 NSCLC
HS 578T breast = test system: HS 578T breast
HT29 colon = test system: HT29 colon
IGROV1 ovarian = test system: IGROV1 ovarian
K-562 leukemia = test system: K-562 leukemia
KM12 colon = test system: KM12 colon
LOX IMVI melanoma = test system: LOX IMVI melanoma
M14 melanoma = test system: M14 melanoma
MALME-3M melanoma = test system: MALME-3M melanoma
MCF7 breast = test system: MCF7 breast
MDA-MB-231 breast = test system: MDA-MB-231 breast
MDA-MB-468 breast = test system: MDA-MB-468 breast
MOLT-4 leukemia = test system: MOLT-4 leukemia
NCI-H226 lung = test system: NCI-H226 lung
NCI-H23 lung = test system: NCI-H23 lung
NCI-H460 lung = test system: NCI-H460 lung
NCI-H522 lung = test system: NCI-H522 lung
OVCAR-3 ovarian = test system: OVCAR-3 ovarian
OVCAR-4 ovarian = test system: OVCAR-4 ovarian
OVCAR-5 ovarian = test system: OVCAR-5 ovarian
OVCAR-8 ovarian = test system: OVCAR-8 ovarian
PC-3 prostate = test system: PC-3 prostate
RPMI-8226 leukemia = test system: RPMI-8226 leukemia
RXF 393 renal = test system: RXF 393 renal
SF-268 CNS = test system: SF-268 CNS
SF-295 CNS = test system: SF-295 CNS
SF-539 CNS = test system: SF-539 CNS
SK-MEL-28 melanoma = test system: SK-MEL-28 melanoma
SK-MEL-5 melanoma = test system: SK-MEL-5 melanoma
SK-OV-3 ovarian = test system: SK-OV-3 ovarian
SN12C renal = test system: SN12C renal
SNB-19 CNS = test system: SNB-19 CNS
SNB-75 CNS = test system: SNB-75 CNS
SR leukemia = test system: SR leukemia
SW-620 colon = test system: SW-620 colon
T-47D breast = test system: T-47D breast
TK-10 renal = test system: TK-10 renal
U251 CNS = test system: U251 CNS
UACC-257 melanoma = test system: UACC-257 melanoma
UACC-62 melanoma = test system: UACC-62 melanoma
UO-31 renal = test system: UO-31 renal

Work on `CN(C)c1ccnc(CNCCSC2(c3ccc(C(F)(F)F)cc3)c3ccccc3CCc3ccccc32)c1` yielded a GI50 (786-0 renal) of 1900 nM, a TGI (786-0 renal) of 11200 nM and a GI50 (A498 renal) of 14000 nM. It also gave a TGI (A498 renal) of 32100 nM, a GI50 (A549 NSCLC) of 1300 nM and a TGI (A549 NSCLC) of 15100 nM. For the same molecule, the GI50 (ACHN renal) was 909 nM, the TGI (ACHN renal) was 15000 nM and the GI50 (BT-549 breast) was 2760 nM. For the same molecule, the TGI (BT-549 breast) was 7360 nM, the GI50 (CAKI-1 renal) was 2110 nM and the TGI (CAKI-1 renal) was 14800 nM. For the same molecule, the GI50 (CCRF-CEM leukemia) was 370 nM, the TGI (CCRF-CEM leukemia) was 6350 nM and the GI50 (COLO 205 colon) was 1020 nM. The TGI (COLO 205 colon) was 2420 nM, the GI50 (DU-145 prostate) was 3080 nM and the TGI (DU-145 prostate) was 11300 nM. For the same molecule, the GI50 (EKVX NSCLC) was 653 nM, the TGI (EKVX NSCLC) was 12700 nM and the GI50 (HCC-2998 colon) was 537 nM. The TGI (HCC-2998 colon) was 1830 nM, the GI50 (HCT-116 colon) was 365 nM and the TGI (HCT-116 colon) was 1780 nM. It also gave a GI50 (HCT-15 colon) of 403 nM, a TGI (HCT-15 colon) of 11000 nM and a GI50 (HL-60(TB) leukemia) of 394 nM. It also gave a TGI (HL-60(TB) leukemia) of 1960 nM, a GI50 (HOP-62 NSCLC) of 2200 nM and a TGI (HOP-62 NSCLC) of 13600 nM. It also gave a GI50 (HOP-92 NSCLC) of 2120 nM, a TGI (HOP-92 NSCLC) of 11700 nM and a GI50 (HS 578T breast) of 1620 nM. The TGI (HS 578T breast) was 7580 nM, the GI50 (HT29 colon) was 1680 nM and the TGI (HT29 colon) was 4110 nM. The GI50 (IGROV1 ovarian) was 1400 nM, the TGI (IGROV1 ovarian) was 13600 nM and the GI50 (K-562 leukemia) was 336 nM. For the same molecule, the TGI (K-562 leukemia) was 1860 nM, the GI50 (KM12 colon) was 1260 nM and the TGI (KM12 colon) was 5160 nM. For the same molecule, the GI50 (LOX IMVI melanoma) was 1140 nM, the TGI (LOX IMVI melanoma) was 2430 nM and the GI50 (M14 melanoma) was 465 nM. The TGI (M14 melanoma) was 2970 nM, the GI50 (MALME-3M melanoma) was 1440 nM and the TGI (MALME-3M melanoma) was 3090 nM. The GI50 (MCF7 breast) was 356 nM, the TGI (MCF7 breast) was 4320 nM and the GI50 (MDA-MB-231 breast) was 479 nM. The TGI (MDA-MB-231 breast) was 2750 nM, the GI50 (MDA-MB-468 breast) was 293 nM and the TGI (MDA-MB-468 breast) was 906 nM. It also gave a GI50 (MOLT-4 leukemia) of 1600 nM, a TGI (MOLT-4 leukemia) of 4450 nM and a GI50 (NCI-H226 lung) of 2380 nM. It also gave a TGI (NCI-H226 lung) of 13900 nM, a GI50 (NCI-H23 lung) of 2720 nM and a TGI (NCI-H23 lung) of 11800 nM. For the same molecule, the GI50 (NCI-H460 lung) was 603 nM, the TGI (NCI-H460 lung) was 2540 nM and the GI50 (NCI-H522 lung) was 473 nM. It also gave a TGI (NCI-H522 lung) of 4260 nM, a GI50 (OVCAR-3 ovarian) of 1310 nM and a TGI (OVCAR-3 ovarian) of 10500 nM. The GI50 (OVCAR-4 ovarian) was 4050 nM, the TGI (OVCAR-4 ovarian) was 17300 nM and the GI50 (OVCAR-5 ovarian) was 2040 nM. The TGI (OVCAR-5 ovarian) was 9120 nM, the GI50 (OVCAR-8 ovarian) was 739 nM and the TGI (OVCAR-8 ovarian) was 10800 nM. The GI50 (PC-3 prostate) was 1050 nM, the TGI (PC-3 prostate) was 12000 nM and the GI50 (RPMI-8226 leukemia) was 1180 nM. The TGI (RPMI-8226 leukemia) was 6420 nM, the GI50 (RXF 393 renal) was 2170 nM and the TGI (RXF 393 renal) was 9120 nM. For the same molecule, the GI50 (SF-268 CNS) was 3240 nM, the TGI (SF-268 CNS) was 17700 nM and the GI50 (SF-295 CNS) was 467 nM. The TGI (SF-295 CNS) was 2340 nM, the GI50 (SF-539 CNS) was 675 nM and the TGI (SF-539 CNS) was 2470 nM. It also gave a GI50 (SK-MEL-28 melanoma) of 3760 nM, a TGI (SK-MEL-28 melanoma) of 15900 nM and a GI50 (SK-MEL-5 melanoma) of 1150 nM. It also gave a TGI (SK-MEL-5 melanoma) of 2460 nM, a GI50 (SK-OV-3 ovarian) of 3320 nM and a TGI (SK-OV-3 ovarian) of 13400 nM. It also gave a GI50 (SN12C renal) of 590 nM, a TGI (SN12C renal) of 8250 nM and a GI50 (SNB-19 CNS) of 1240 nM. For the same molecule, the TGI (SNB-19 CNS) was 14300 nM, the GI50 (SNB-75 CNS) was 1840 nM and the TGI (SNB-75 CNS) was 8920 nM. The GI50 (SR leukemia) was 345 nM, the TGI (SR leukemia) was 1620 nM and the GI50 (SW-620 colon) was 446 nM. For the same molecule, the TGI (SW-620 colon) was 12500 nM, the GI50 (T-47D breast) was 3420 nM and the TGI (T-47D breast) was 15600 nM. The GI50 (TK-10 renal) was 3910 nM, the TGI (TK-10 renal) was 16100 nM and the GI50 (U251 CNS) was 439 nM. It also gave a TGI (U251 CNS) of 3560 nM, a GI50 (UACC-257 melanoma) of 3670 nM and a TGI (UACC-257 melanoma) of 15900 nM. The GI50 (UACC-62 melanoma) was 3240 nM, the TGI (UACC-62 melanoma) was 14500 nM and the GI50 (UO-31 renal) was 2460 nM. The TGI (UO-31 renal) was 16000 nM.
